Test results as given in patent US5196094A, “Separation of 1,1,1-trichloroethane from the lower alcohols by extractive distillation” (priority 1991, dated 1993).
Where a name gives a salt, the structure may show the parent alone.

Assays:
Format in all cases: physicochemical
[1] = Vapor-liquid equilibrium still, separation of 1,1,1-trichloroethane from n-propanol
[2] = Vapor-liquid equilibrium still, separation of 1,1,1-trichloroethane from ethanol
[3] = Vapor-liquid equilibrium still, separation of 1,1,1-trichloroethane from isopropanol
[4] = Vapor-liquid equilibrium still, separation of 1,1,1-trichloroethane from methanol
[5] = Vapor-liquid equilibrium still, separation of 1,1,1-trichloroethane from 2-butanol
[6] = Vapor-liquid equilibrium still, separation of 1,1,1-trichloroethane from t-butanol
[7] = 1,1,1-trichloroethane from ethanol
[8] = 1,1,1-trichloroethane from n-propanol, vapor-liquid equilibrium still
[9] = 1,1,1-trichloroethane from t-butanol
[10] = 1,1,1-trichloroethane from methanol, vapor-liquid equilibrium still
[11] = 1,1,1-trichloroethane from 2-butanol, vapor-liquid equilibrium still
[12] = * Brings out Ethanol as Overhead

Row | Structure (SMILES) | Relative Volatility [1] | Relative Volatility [2, 7] | Relative Volatility [3] | Relative Volatility [4] | Relative Volatility [5] | other results
1 | CC(=O)CC(C)C [Methyl isobutyl ketone] | 1.5 | 1.85 |  |  |  | 
2 | CCCCC(=O)OCC [Ethyl n-valerate] |  | 1.6 | 1.35 | 2.7 | 1.5 | 
3 | CCCCO [1-Butanol] |  | 3.5 |  |  |  | Relative Volatility [1, 8]: 3.9; Relative Volatility [6, 9]: 2.7
4 | CC(=O)c1ccccc1 [Acetophenone] | 1.7 | 1.35 |  |  | 3.0 | Relative Volatility [4, 10]: 2.3
5 | CC(C)CO [Isobutanol] | 2.2 | 1.35 |  |  |  | Relative Volatility [6, 9]: 1.2
6 | CC(=O)C(C)(C)C [3,3-Dimethyl-2-butanone] | 1.4 | 1.65 |  |  |  | 
7 | CC(=O)CC(C)=O [2,4-Pentanedione] | 1.6 |  |  | 2.7 | 1.8 | 
8 | CC(C)[N+](=O)[O-] [2-Nitropropane] | 1.4 |  |  |  | 1.6 | Relative Volatility [4, 10]: 2.0
9 | CC1=CC(=O)CC(C)(C)C1 [Isophorone] |  | 1.55 |  |  |  | Relative Volatility [6, 9]: 1.4; Relative Volatility [5, 11]: 2.0
10 | CC(C)COC(=O)C(C)C [Isobutyl isobutyrate] |  | 3.3 | 1.3 |  | 1.5 | 
11 | CN(C)C=O [Dimethylformamide] | 2.8 |  | 1.55 | 2.8 | 2.8 | 
12 | CC(C)CCO [Isoamyl alcohol] | 3.6 |  |  | 2.2 | 1.6 | Relative Volatility [6, 9]: 3.0
13 | CCCCOCCO [Ethylene glycol butyl ether] |  |  |  |  |  | Relative Volatility [1, 8]: 2.0; Relative Volatility [6, 9]: 1.7; Relative Volatility [4, 10]: 3.2; Relative Volatility [5, 11]: 2.8
14 | CCCC(=O)OCC [Ethyl butyrate] |  |  | 1.3 |  |  | Relative Volatility [2, 12]: 1.2
15 | COCCO [Ethylene glycol methyl ether] | 4.4 | 1.95 |  |  | 4.5 | Relative Volatility [6, 9]: 3.1
16 | CC(=O)CCC(C)C [5-Methyl-2-hexanone] |  |  |  |  |  | Relative Volatility [1, 8]: 1.3
17 | CCC[N+](=O)[O-] [1-Nitropropane] | 1.3 |  |  |  | 1.6 | Relative Volatility [4, 10]: 2.1
18 | CCCCCCOCCOCCO [Diethylene glycol hexyl ether] |  |  |  |  |  | Relative Volatility [1, 8]: 2.0; Relative Volatility [6, 9]: 1.5; Relative Volatility [4, 10]: 4.2; Relative Volatility [5, 11]: 2.3
19 | O=[N+]([O-])c1ccccc1 [Nitrobenzene] | 1.4 |  |  | 2.5 | 1.6 | 
20 | N#CCCCCC#N [Adiponitrile] |  |  | 1.25 |  |  | 
21 | CCC(C)COC(C)=O (stereo not shown) [2-Methyl butyl acetate] |  |  | 1.35 |  |  | 
22 | CC(O)COc1ccccc1 (stereo not shown) [Propylene glycol phenyl ether] |  |  | 1.6 | 3.1 |  | Relative Volatility [1, 8]: 3.4; Relative Volatility [5, 11]: 2.4
23 | CCOC(=O)CC(C)C [Ethyl isovalerate] |  | 1.4 | 1.6 | 2.7 | 1.6 | 
24 | CCCCC(=O)CC [3-Heptanone] | 1.25 |  |  |  |  | 
25 | O=C1OCCO1 [Ethylene carbonate] |  | 3.2 |  |  |  | Relative Volatility [6, 9]: 1.3; Relative Volatility [4, 10]: 3.3; Relative Volatility [5, 11]: 2.8

Row | Structure (SMILES) | Relative Volatility [1] | Relative Volatility [2, 7] | Relative Volatility [3] | Relative Volatility [4] | Relative Volatility [5] | other results
26 | CCOCCO [Ethylene glycol ethyl ether] | 3.6 | 2.5 |  |  | 3.1 | Relative Volatility [6, 9]: 2.2
27 | CC(=O)OCc1ccccc1 [Benzyl acetate] |  | 1.2 | 1.55 | 2.5 |  | Relative Volatility [5, 11]: 1.7
28 | CCCCCCOC=O [n-Hexyl formate] |  | 1.4 |  | 1.7 | 1.5 | 
29 | CC(=O)O[C@@H]1C[C@H]2CC[C@]1(C)C2(C)C (racemic) [Isobornyl acetate] |  |  |  | 2.5 | 1.7 | Relative Volatility [2, 12]: 1.6
30 | CC(=O)CC(C)C [4-Methyl-2-pentanone] | 1.4 | 1.6 |  |  |  | 
31 | CCCCOCCOC(C)=O [Ethylene glycol butyl ether acetate] |  | 1.2 | 1.3 |  | 1.8 | Relative Volatility [4, 10]: 2.1
32 | CC(=O)OCCOC(C)=O [Ethylene glycol diacetate] | 1.7 | 1.7 |  |  |  | Relative Volatility [6, 9]: 1.3
33 | CC(C)COCC(C)O (stereo not shown) [Propylene glycol isobutyl ether] |  |  |  | 2.5 |  | Relative Volatility [6, 9]: 1.4; Relative Volatility [5, 11]: 2.4
34 | CC(=O)OCC(C)C [Isobutyl acetate] |  |  | 1.35 |  |  | 
35 | CCCCC(CC)COC(C)=O (stereo not shown) [2-Ethyl hexyl acetate] |  |  | 1.3 |  | 1.6 | Relative Volatility [4, 10]: 2.0
36 | CN1CCCC1=O [1-Methyl-2-pyrrolidinone] |  | 2.5 |  | 2.7 |  | Relative Volatility [5, 11]: 3.6
37 | CCCCCCC(C)=O [2-Octanone] | 1.25 |  |  |  |  | 
38 | COC(=O)c1ccccc1 [Methyl benzoate] | 1.25 |  |  |  |  | 
39 | CC(=O)Oc1ccccc1 [Phenyl acetate] |  |  | 1.25 |  |  | 
40 | CCCCCOC(C)=O [Amyl acetate] |  |  | 1.4 |  | 1.5 | Relative Volatility [4, 10]: 2.1
41 | O=C(OCc1ccccc1)c1ccccc1 [Benzyl benzoate] |  |  |  |  |  | Relative Volatility [1, 8]: 1.6
42 | CCOCCOCCOCC [Diethylene glycol diethyl ether] | 1.6 |  |  | 2.7 | 1.6 | Relative Volatility [2, 12]: 1.2
43 | CCOCCOCCO [Diethylene glycol ethyl ether] |  | 1.2 |  | 2.9 |  | Relative Volatility [6, 9]: 1.4; Relative Volatility [5, 11]: 2.8
44 | CCCCCCOC(C)=O [Hexyl acetate] |  |  | 1.35 |  | 1.6 | 
45 | CCCCOCCOCCO [Diethylene glycol butyl ether] |  |  |  |  | 2.7 | Relative Volatility [1, 8]: 2.8; Relative Volatility [6, 9]: 1.5; Relative Volatility [4, 10]: 2.1
46 | CC[N+](=O)[O-] [Nitroethane] |  |  | 1.3 | 2.8 |  | 
47 | OCCOc1ccccc1 [Ethylene glycol phenyl ether] | 2.5 |  |  | 3.1 |  | Relative Volatility [6, 9]: 1.3; Relative Volatility [5, 11]: 2.0
48 | COCC(C)OC(C)=O (stereo not shown) [1-Methoxy-2-propanol acetate] |  |  | 1.7 | 1.7 |  | Relative Volatility [5, 11]: 4.3
49 | CCCCCCO [Hexyl alcohol] | 2.5 |  |  |  |  | Relative Volatility ([6]; * Brings out t-Butanol as Overhead): 1.2
